These results are taken from patent publication US11331299B2, “Medicinal use of serrulatane diterpenes” (The University of Sydney, priority 2016, dated 2022).

One assay has as its target T1, SETD7 (h) (Homo sapiens, UniProt Q8WTS6).
T1 sequence (Q8WTS6 1-366): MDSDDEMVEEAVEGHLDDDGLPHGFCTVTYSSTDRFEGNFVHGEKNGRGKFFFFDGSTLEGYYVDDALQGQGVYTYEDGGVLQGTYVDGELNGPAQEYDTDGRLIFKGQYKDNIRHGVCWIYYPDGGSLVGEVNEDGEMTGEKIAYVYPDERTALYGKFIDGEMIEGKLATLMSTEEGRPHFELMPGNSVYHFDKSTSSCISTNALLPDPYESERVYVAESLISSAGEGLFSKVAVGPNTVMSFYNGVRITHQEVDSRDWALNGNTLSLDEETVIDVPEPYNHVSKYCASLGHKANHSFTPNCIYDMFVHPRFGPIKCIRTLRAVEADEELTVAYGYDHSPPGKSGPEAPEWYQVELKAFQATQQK
The conditions noted are these: read-out: Reference: (IC50 not given); cited from earlier work.

Assay [1] has as its target T2, enzymes (Bioprint panel) (Bos taurus, UniProt P11541+P23439).
T2 construct: other: PDE6 (non-selective); 10 μM
The assay is described as follows: biochemical. The conditions noted are these: PDE6 (non-selective); 10 μM; read-out: % Inhibition of Control Values.

Assay [2] concerns the target enzymes (Bioprint panel) (Bos taurus, UniProt P80457). The assay is described as follows: biochemical. The conditions noted are these: xanthine oxidase/superoxide O2- scavenging; 10 μM; read-out: % Inhibition of Control Values.
In assay [3] the target is enzymes (Bioprint panel) (Homo sapiens, UniProt O76074). Nature of the assay: biochemical. The note with it: PDE5 (h) (non-selective); 10 μM; read-out: % Inhibition of Control Values.
In assay [4] the target is enzymes (Bioprint panel) (Homo sapiens, UniProt P00519). Nature of the assay: biochemical. The note with it: Abl kinase (h); 10 μM; read-out: % Inhibition of Control Values.
The target in assay [5] is enzymes (Bioprint panel) (Homo sapiens, UniProt P03956). Nature of the assay: biochemical. The conditions noted are these: MMP-1 (h); 10 μM; read-out: % Inhibition of Control Values.
Sequence of enzymes (Bioprint panel) (Homo sapiens, UniProt P03956) (P03956 100-469): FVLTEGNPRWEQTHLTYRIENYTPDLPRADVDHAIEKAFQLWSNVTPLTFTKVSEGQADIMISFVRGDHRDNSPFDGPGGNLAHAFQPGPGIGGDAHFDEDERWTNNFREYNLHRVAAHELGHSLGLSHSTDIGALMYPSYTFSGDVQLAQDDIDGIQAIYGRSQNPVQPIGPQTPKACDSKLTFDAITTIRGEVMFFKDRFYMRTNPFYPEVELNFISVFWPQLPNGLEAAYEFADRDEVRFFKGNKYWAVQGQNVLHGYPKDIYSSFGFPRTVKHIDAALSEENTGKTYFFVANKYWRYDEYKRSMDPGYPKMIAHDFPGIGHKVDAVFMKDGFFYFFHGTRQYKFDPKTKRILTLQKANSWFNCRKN
In assay [6] the target is enzymes (Bioprint panel) (Homo sapiens, UniProt P06213). Nature of the assay: biochemical. The note with it: IRK (h) (InsR); 10 μM; read-out: % Inhibition of Control Values.
The target of assay [7] is enzymes (Bioprint panel) (Homo sapiens, UniProt P07948). Nature of the assay: biochemical. The note with it: Lyn A kinase (h); 10 μM; read-out: % Inhibition of Control Values.
Sequence of enzymes (Bioprint panel) (Homo sapiens, UniProt P07948) (P07948 whole entry): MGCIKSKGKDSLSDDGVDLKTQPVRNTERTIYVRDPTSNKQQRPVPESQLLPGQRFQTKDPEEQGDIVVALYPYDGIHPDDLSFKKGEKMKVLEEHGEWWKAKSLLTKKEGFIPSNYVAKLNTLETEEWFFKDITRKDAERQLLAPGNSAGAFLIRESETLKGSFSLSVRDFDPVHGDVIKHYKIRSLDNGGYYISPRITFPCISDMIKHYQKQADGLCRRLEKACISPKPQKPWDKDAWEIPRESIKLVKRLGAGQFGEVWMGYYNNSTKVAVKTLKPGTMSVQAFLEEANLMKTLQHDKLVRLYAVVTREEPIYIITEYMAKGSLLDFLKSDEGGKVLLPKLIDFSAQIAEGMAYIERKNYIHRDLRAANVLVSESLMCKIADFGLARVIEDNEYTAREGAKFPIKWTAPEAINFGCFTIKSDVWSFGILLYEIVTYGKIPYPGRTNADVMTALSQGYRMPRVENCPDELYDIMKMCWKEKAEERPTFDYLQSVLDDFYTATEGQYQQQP
For assay [8], the target named is enzymes (Bioprint panel) (Homo sapiens, UniProt P08253). The assay is described as follows: biochemical. The note with it: MMP-2 (h); 10 μM; read-out: % Inhibition of Control Values.
Sequence of enzymes (Bioprint panel) (Homo sapiens, UniProt P08253) (P08253 110-660): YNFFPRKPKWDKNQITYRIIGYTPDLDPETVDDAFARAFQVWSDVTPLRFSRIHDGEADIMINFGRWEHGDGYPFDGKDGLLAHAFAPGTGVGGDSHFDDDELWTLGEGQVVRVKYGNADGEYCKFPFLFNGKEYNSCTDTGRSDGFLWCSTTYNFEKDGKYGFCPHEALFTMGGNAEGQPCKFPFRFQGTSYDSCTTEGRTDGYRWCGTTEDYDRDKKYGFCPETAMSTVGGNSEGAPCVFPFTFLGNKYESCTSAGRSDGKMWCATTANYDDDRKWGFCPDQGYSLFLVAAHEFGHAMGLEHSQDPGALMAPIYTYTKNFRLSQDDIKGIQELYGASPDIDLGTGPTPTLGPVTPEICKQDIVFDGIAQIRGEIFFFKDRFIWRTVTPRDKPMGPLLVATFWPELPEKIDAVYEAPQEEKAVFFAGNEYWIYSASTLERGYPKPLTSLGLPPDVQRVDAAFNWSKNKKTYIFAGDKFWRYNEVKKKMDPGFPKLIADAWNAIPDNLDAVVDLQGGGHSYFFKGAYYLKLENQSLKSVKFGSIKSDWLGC
Assay [9] deals with enzymes (Bioprint panel) (Homo sapiens, UniProt P12821). The assay is described as follows: biochemical. The note with it: ACE (h); 10 μM; read-out: % Inhibition of Control Values.
Assay [10] concerns the target enzymes (Bioprint panel) (Homo sapiens, UniProt P14780). The assay is described as follows: biochemical. The note with it: MMP-9 (h); 10 μM; read-out: % Inhibition of Control Values.
Assay [11] addresses enzymes (Bioprint panel) (Homo sapiens, UniProt P17948). The assay is described as follows: biochemical. The note with it: FLT-1 kinase (h) (VEGFR1); 10 μM; read-out: % Inhibition of Control Values.
The target in assay [12] is enzymes (Bioprint panel) (Homo sapiens, UniProt P22303). The assay is described as follows: biochemical. The note with it: acetylcholinesterase (h); 10 μM; read-out: % Inhibition of Control Values.
Assay [13] concerns the target enzymes (Bioprint panel) (Homo sapiens, UniProt P24941). The assay is described as follows: biochemical. The conditions noted are these: CDK2 (h) (cycA); 10 μM; read-out: % Inhibition of Control Values.
Assay [14] addresses enzymes (Bioprint panel) (Homo sapiens, UniProt P42574). The assay is described as follows: biochemical. The note with it: caspase-3 (h); 10 μM; read-out: % Inhibition of Control Values.
The target of assay [15] is T3, enzymes (Bioprint panel) (Homo sapiens, UniProt Q08499).
T3 construct: other: PDE4D2 (h); 10 μM; PDE4D2 (h)
T3 sequence (Q08499 303-809): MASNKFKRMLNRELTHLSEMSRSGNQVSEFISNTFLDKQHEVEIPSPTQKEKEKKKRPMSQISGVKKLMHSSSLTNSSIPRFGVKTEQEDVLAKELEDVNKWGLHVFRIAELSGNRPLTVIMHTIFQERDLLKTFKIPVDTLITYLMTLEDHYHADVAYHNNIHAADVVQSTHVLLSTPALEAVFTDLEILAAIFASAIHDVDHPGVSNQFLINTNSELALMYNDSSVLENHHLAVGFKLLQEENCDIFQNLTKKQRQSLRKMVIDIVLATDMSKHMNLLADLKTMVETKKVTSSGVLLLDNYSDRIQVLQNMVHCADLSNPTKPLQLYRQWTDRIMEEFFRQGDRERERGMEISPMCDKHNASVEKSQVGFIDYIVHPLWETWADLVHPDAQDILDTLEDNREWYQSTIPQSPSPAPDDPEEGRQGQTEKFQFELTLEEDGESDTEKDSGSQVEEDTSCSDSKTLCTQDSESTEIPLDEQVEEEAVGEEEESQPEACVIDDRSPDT
The assay is described as follows: biochemical. The note with it: PDE4D2 (h); 10 μM; read-out: % Inhibition of Control Values.

The target of assay [16] is enzymes (Bioprint panel) (Homo sapiens, UniProt Q13370). The assay is described as follows: biochemical. The note with it: PDE3B (h); 10 μM; read-out: % Inhibition of Control Values.
Assay [17] addresses enzymes (Bioprint panel) (Homo sapiens, UniProt Q16539). Nature of the assay: biochemical. The conditions noted are these: p38alpha kinase (h); 10 μM; read-out: % Inhibition of Control Values.
Assay [18] addresses enzymes (Bioprint panel) (Homo sapiens, UniProt Q9BYF1). The assay is described as follows: biochemical. The conditions noted are these: ACE-2 (h); 10 μM; read-out: % Inhibition of Control Values.
For assay [19], the target named is enzymes (Bioprint panel) (Homo sapiens, UniProt Q9UQM7). The assay is described as follows: biochemical. The conditions noted are these: CaMK2alpha (h); 10 μM; read-out: % Inhibition of Control Values.
Sequence of enzymes (Bioprint panel) (Homo sapiens, UniProt Q9UQM7) (Q9UQM7 whole entry): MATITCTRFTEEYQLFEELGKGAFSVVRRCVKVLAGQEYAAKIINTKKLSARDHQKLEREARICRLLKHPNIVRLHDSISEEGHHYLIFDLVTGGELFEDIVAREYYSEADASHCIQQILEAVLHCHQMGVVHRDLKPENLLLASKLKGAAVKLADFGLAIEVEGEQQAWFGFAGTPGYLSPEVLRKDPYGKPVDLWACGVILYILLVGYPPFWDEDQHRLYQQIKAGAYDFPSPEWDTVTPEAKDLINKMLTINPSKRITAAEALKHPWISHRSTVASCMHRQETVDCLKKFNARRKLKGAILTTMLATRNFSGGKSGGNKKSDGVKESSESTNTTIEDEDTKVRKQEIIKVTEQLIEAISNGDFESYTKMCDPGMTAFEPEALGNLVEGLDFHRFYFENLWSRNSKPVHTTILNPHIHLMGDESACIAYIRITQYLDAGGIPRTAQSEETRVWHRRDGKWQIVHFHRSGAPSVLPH
The target in assay [20] is enzymes (Bioprint panel) (Mus musculus, UniProt P29477). Nature of the assay: biochemical. The note with it: inducible NOS; 10 μM; read-out: % Inhibition of Control Values.
Assay [21] concerns the target enzymes (Bioprint panel) (Rattus norvegicus, UniProt P21396). The assay is described as follows: biochemical. The conditions noted are these: MAO-A (antagonist radioligand); 10 μM; read-out: % Inhibition of Control Values.
The target of assay [22] is T4, enzymes (Bioprint panel) (UniProt A0ABM2YAB8).
T4 construct: other: MT3 (ML2) (agonist radioligand); 10 μM
Nature of the assay: biochemical. The conditions noted are these: MT3 (ML2) (agonist radioligand); 10 μM.

Assay [23] has as its target T5, enzymes (Bioprint panel) (UniProt P04585).
T5 construct: other: HIV-1 protease; 10 μM
The assay is described as follows: biochemical. The conditions noted are these: HIV-1 protease; 10 μM.

The subject of assay [24] is enzymes (Bioprint panel). The assay is described as follows: biochemical. The note with it: COMT (catechol- O-methyl transferase); 10 μM.
For assay [25], the system named is T6, enzymes (Bioprint panel).
T6 construct: other: ATPase (Na+/K+); 10 μM
Nature of the assay: biochemical. The note with it: ATPase (Na+/K+); 10 μM.

Sequence of enzymes (Bioprint panel) (Homo sapiens, UniProt P14780) (P14780 94-707): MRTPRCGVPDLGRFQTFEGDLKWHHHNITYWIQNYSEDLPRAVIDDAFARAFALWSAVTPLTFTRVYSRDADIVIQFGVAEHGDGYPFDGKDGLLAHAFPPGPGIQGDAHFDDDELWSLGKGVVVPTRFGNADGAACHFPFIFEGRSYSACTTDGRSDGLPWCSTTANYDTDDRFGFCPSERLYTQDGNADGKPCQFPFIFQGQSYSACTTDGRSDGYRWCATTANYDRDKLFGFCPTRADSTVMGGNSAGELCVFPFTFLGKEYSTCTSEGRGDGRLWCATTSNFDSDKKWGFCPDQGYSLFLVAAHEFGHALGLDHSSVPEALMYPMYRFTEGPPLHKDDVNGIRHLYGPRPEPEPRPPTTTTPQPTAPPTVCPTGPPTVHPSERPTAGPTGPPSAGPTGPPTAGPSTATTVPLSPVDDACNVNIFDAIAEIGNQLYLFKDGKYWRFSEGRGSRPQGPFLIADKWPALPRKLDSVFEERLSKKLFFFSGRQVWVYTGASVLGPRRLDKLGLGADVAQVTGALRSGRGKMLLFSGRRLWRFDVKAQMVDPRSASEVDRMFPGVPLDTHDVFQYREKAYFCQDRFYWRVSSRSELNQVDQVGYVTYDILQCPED
Sequence of enzymes (Bioprint panel) (Homo sapiens, UniProt P42574) (P42574 29-277): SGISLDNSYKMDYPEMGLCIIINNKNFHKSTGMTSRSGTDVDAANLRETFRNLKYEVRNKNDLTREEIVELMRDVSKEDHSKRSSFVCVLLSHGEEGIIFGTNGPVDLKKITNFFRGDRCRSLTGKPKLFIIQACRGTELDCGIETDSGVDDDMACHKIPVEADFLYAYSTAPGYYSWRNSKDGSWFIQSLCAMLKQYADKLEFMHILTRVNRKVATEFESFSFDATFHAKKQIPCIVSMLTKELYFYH
Sequence of enzymes (Bioprint panel) (Homo sapiens, UniProt Q16539) (Q16539 whole entry): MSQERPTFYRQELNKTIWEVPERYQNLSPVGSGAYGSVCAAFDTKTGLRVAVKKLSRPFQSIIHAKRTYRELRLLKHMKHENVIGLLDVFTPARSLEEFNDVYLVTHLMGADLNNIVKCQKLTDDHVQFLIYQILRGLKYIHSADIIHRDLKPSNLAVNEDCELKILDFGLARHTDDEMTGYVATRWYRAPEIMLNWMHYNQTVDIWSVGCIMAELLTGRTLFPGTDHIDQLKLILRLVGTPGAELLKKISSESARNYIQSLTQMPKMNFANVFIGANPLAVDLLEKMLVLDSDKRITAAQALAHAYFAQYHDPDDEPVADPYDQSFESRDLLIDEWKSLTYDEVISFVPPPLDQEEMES
Sequence of enzymes (Bioprint panel) (Bos taurus, UniProt P80457) (P80457 whole entry): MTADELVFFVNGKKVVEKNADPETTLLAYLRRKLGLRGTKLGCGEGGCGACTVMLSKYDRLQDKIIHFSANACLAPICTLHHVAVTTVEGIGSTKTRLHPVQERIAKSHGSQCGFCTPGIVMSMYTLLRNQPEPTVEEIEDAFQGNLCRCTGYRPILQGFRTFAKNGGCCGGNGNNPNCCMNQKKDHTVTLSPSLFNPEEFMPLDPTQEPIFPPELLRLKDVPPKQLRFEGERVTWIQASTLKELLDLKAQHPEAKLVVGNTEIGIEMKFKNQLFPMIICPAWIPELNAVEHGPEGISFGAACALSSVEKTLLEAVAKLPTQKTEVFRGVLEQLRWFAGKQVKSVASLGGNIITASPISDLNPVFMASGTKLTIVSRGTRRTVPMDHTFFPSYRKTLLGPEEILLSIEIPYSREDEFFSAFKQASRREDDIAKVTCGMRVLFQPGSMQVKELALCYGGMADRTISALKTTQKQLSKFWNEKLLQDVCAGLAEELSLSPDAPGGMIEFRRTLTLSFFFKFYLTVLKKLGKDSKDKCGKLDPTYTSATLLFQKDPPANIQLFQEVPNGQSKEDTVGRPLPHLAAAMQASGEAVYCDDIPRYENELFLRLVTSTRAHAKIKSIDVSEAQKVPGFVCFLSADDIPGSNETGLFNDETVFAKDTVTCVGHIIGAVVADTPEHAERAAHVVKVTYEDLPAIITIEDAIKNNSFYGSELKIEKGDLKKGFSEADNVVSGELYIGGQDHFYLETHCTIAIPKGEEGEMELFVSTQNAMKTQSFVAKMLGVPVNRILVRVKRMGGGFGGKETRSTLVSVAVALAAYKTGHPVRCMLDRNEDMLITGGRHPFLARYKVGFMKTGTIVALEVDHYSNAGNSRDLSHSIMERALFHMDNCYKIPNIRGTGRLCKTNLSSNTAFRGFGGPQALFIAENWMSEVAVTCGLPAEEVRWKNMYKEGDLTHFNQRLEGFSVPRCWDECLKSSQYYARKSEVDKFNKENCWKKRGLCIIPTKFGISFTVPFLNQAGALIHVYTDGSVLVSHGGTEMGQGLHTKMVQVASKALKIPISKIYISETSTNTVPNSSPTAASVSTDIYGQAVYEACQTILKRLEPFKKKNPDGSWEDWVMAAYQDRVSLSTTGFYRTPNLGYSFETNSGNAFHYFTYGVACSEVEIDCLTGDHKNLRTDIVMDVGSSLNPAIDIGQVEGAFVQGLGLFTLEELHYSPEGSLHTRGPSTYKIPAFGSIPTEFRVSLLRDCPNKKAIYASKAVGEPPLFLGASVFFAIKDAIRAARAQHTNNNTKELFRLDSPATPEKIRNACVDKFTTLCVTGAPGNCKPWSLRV

What is called IC50 is the midpoint of a concentration-inhibition curve. Take `Nc1ncnc2c1ncn2[C@@H]1O[C@H](CSCC[C@H](N)C(=O)O)[C@@H](O)[C@H]1O` [SAH]: the IC50 at SETD7 (h) is 24 µM.
What is called inhibition is the drop in the measured response relative to a control, in per cent. `CC(C)=CCC[C@H](CO)[C@@H]1CC[C@@H](C)c2c1cc(C)c(O)c2O` [Compound 1, 7,8,18-trihydroxyserrulat-14-ene]: the inhibition at 10 µM at enzymes (Bioprint panel) [1] was 4%; on enzymes (Bioprint panel) [2] it was -140%; at enzymes (Bioprint panel) [3] it was 11%; on enzymes (Bioprint panel) [4], 14%; at enzymes (Bioprint panel) [5] it was -2%; on enzymes (Bioprint panel) [6] it was -15%. The inhibition at 10 µM on enzymes (Bioprint panel) [7] worked out at 9%; on enzymes (Bioprint panel) [8] it was 0%; on enzymes (Bioprint panel) [9], 14%; on enzymes (Bioprint panel) [10], 1%; on enzymes (Bioprint panel) [11], 36%; at enzymes (Bioprint panel) [12] it was 32%. Also, the inhibition at 10 µM on enzymes (Bioprint panel) [13] was 12%; at enzymes (Bioprint panel) [14], -3%; at enzymes (Bioprint panel) [15], 55%; at enzymes (Bioprint panel) [16], -3%; at enzymes (Bioprint panel) [17] it was 4%; at enzymes (Bioprint panel) [18], -3%. In addition, the inhibition at 10 µM at enzymes (Bioprint panel) [19] was 2%; on enzymes (Bioprint panel) [20], -1%; on enzymes (Bioprint panel) [21], 15%. In addition, the “% Inhibition of Control Values” was 31% at enzymes (Bioprint panel) [22], 9% at enzymes (Bioprint panel) [23], −6% in the assay on enzymes (Bioprint panel) [24] and 22% with enzymes (Bioprint panel) [25].
